Data published in ChEMBL document CHEMBL3046105, “Synthesis and antihyperlipidemic efficiency of berberine-based HMG-CoA reductase inhibitor” (Med Chem Res, 2012).

Columns and labels:
[1] = test system: Oryctolagus cuniculus; test: Antihyperlipidemic activity in high fat-high cholesterol fed New Zealand Oryctolagus cuniculus (rabbit) assessed as triglyceride level in blood at 15 mg/kg, po for 40 days (reference value: 2.11 +/- 0.43 mmol/l); assay type: functional
[2] = test system: Oryctolagus cuniculus; test: Antihyperlipidemic activity in high fat-high cholesterol fed New Zealand Oryctolagus cuniculus (rabbit) assessed as low-density lipoprotein-cholesterol level in blood at 15 mg/kg, po for 40 days (reference value: 3.45 +/- 0.56 mmol/l); assay type: functional
[3] = Toxicity in Mus musculus Kunming (mouse); assay type: organism-based; conditions: in vivo
[4] = test system: Oryctolagus cuniculus; test: Antihyperlipidemic activity in high fat-high cholesterol fed New Zealand Oryctolagus cuniculus (rabbit) assessed as total cholesterol level in blood at 15 mg/kg, po for 40 days (reference value: 8.89 +/- 0.53 mmol/l); assay type: functional
[5] = biological target: T1, 3-hydroxy-3-methylglutaryl-coenzyme A reductase (Mus musculus) (UniProt Q01237); test: Inhibition of HMGR isolated from Mus musculus (mouse) liver assessed as change in NADPH at 8 umol/l by HPLC analysis
T1 sequence (whole entry): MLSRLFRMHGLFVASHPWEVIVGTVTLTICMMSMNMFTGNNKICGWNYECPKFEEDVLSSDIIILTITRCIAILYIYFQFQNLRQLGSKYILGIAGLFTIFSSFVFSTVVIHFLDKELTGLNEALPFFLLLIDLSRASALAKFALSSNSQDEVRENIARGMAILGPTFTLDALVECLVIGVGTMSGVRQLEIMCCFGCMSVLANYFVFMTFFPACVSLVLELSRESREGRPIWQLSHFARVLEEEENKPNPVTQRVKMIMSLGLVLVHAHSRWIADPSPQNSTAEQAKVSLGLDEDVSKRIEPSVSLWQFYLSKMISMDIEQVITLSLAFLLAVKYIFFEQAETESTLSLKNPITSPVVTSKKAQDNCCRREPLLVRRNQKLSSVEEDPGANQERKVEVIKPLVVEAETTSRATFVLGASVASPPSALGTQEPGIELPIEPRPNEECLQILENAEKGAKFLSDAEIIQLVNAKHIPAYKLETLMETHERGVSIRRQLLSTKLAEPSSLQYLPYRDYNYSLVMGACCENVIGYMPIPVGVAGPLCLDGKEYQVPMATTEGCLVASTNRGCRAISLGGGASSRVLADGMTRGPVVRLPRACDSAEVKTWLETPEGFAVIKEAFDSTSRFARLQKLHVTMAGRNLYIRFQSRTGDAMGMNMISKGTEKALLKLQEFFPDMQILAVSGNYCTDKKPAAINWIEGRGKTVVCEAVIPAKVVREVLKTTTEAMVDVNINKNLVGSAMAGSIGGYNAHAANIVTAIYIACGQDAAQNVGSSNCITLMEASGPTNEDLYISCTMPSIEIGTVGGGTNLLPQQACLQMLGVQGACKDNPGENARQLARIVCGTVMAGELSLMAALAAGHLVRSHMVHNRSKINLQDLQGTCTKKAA

[6] = test system: Oryctolagus cuniculus; test: Toxicity in high fat-high cholesterol fed New Zealand Oryctolagus cuniculus (rabbit) assessed as body weight at 15 mg/kg, po for 40 days; assay type: organism-based; design: dose 15 mg/kg, route oral; conditions: in vivo, 960 h
[7] = test system: Oryctolagus cuniculus; test: Antihyperlipidemic activity in high fat-high cholesterol fed New Zealand Oryctolagus cuniculus (rabbit) assessed as high-density lipoprotein-cholesterol level in blood at 15 mg/kg, po for 40 days (reference value: 0.67 +/- 0.22 mmol/l); assay type: functional
[8] = test system: Oryctolagus cuniculus; test: Toxicity in high fat-high cholesterol fed New Zealand Oryctolagus cuniculus (rabbit) assessed as mortality at 15 mg/kg, po for 40 days; assay type: organism-based; design: dose 15 mg/kg, route oral; conditions: in vivo, 960 h
[9] = test system: Oryctolagus cuniculus; test: Antihyperlipidemic activity in high fat-high cholesterol fed New Zealand Oryctolagus cuniculus (rabbit) assessed as total cholesterol level in blood at 4 mg/kg, po for 40 days (reference value: 8.89 +/- 0.53 mmol/l); assay type: functional
[10] = test system: Oryctolagus cuniculus; test: Antihyperlipidemic activity in high fat-high cholesterol fed New Zealand Oryctolagus cuniculus (rabbit) assessed as low-density lipoprotein-cholesterol level in blood at 4 mg/kg, po for 40 days (reference value: 3.45 +/- 0.56 mmol/l); assay type: functional
[11] = test system: Oryctolagus cuniculus; test: Antihyperlipidemic activity in high fat-high cholesterol fed New Zealand Oryctolagus cuniculus (rabbit) assessed as high-density lipoprotein-cholesterol level in blood at 4 mg/kg, po for 40 days (reference value: 0.67 +/- 0.22 mmol/l); assay type: functional
[12] = test system: Oryctolagus cuniculus; test: Antihyperlipidemic activity in high fat-high cholesterol fed New Zealand Oryctolagus cuniculus (rabbit) assessed as triglyceride level in blood at 4 mg/kg, po for 40 days (reference value: 2.11 +/- 0.43 mmol/l); assay type: functional

## CCCCCCCCCCCCCCc1c2c(OC)c(OC)ccc2cc2[n+]1CCc1cc3c(cc1-2)OCO3.[Cl-] [8-TETRADECYL-BERBERINE CHLORIDE]
[1]
  Activity: 1.73e+06 nmol/L
[2]
  Activity: 2.41e+06 nmol/L
[3]
  LD50: 803 mg/kg
[4]
  Activity: 6.02e+06 nmol/L
[5]
  inhibition: 11.2%
[6]
  Activity: Non-toxic
[7]
  Activity: 730000 nmol/L
[8]
  Activity: Non-toxic

## CCCCCCCCCCCCc1c2c(OC)c(OC)ccc2cc2[n+]1CCc1cc3c(cc1-2)OCO3.[Cl-] [8-DODECYL-BERBERINE CHLORIDE]
[1]
  Activity: 1.86e+06 nmol/L
[2]
  Activity: 2.98e+06 nmol/L
[3]
  LD50: 752 mg/kg
[4]
  Activity: 6.04e+06 nmol/L
[5]
  inhibition: 4.2%
[6]
  Activity: Non-toxic
[7]
  Activity: 720000 nmol/L
[8]
  Activity: Non-toxic

## CCCCCCCCc1c2c(OC)c(OC)ccc2cc2[n+]1CCc1cc3c(cc1-2)OCO3.[Cl-] [8-OCTYL-BERBERINE CHLORIDE]
[1]
  Activity: 1.95e+06 nmol/L
[2]
  Activity: 3.06e+06 nmol/L
[3]
  LD50: 534 mg/kg
[4]
  Activity: 6.25e+06 nmol/L
[6]
  Activity: Non-toxic
[7]
  Activity: 700000 nmol/L
[8]
  Activity: Non-toxic

## CC[C@H](C)C(=O)O[C@H]1C[C@@H](C)C=C2C=C[C@H](C)[C@H](CC[C@@H]3C[C@@H](O)CC(=O)O3)[C@H]21 [LOVASTATIN]
[3]
  LD50: > 1000 mg/kg
[9]
  Activity: 2.56e+06 nmol/L
[5]
  inhibition: 20.2%
[10]
  Activity: 1.85e+06 nmol/L
[11]
  Activity: 780000 nmol/L
[12]
  Activity: 1.62e+06 nmol/L

## COc1ccc2cc3[n+](cc2c1OC)CCc1cc2c(cc1-3)OCO2.[Cl-] [BERBERINE CHLORIDE]
[1]
  Activity: 2.02e+06 nmol/L
[2]
  Activity: 3.27e+06 nmol/L
[3]
  LD50: 764 mg/kg
[4]
  Activity: 7.94e+06 nmol/L
[7]
  Activity: 700000 nmol/L

## CCCCCCCCCCCCCCCCCCc1c2c(OC)c(OC)ccc2cc2[n+]1CCc1cc3c(cc1-2)OCO3.[Cl-] [8-OCTADECYL-BERBERINE CHLORIDE]
[1]
  Activity: 1.6e+06 nmol/L
[2]
  Activity: 2.55e+06 nmol/L
[3]
  LD50: > 1000 mg/kg
[4]
  Activity: 2.37e+06 nmol/L
[5]
  inhibition: 33%
[6]
  Activity: Non-toxic
[7]
  Activity: 750000 nmol/L
[8]
  Activity: Non-toxic
